Assays:
cMET = cMET (Homo sapiens, UniProt P08581); test: Inhibitory activity against MET (cMET), TR-FRET kinase assay; assay type: biochemical; conditions: cMET enzyme
Protocol: In addition, in order to measure the enzyme activity inhibition for cMET, the evaluation was performed in the same manner as the enzyme activity inhibition measurement experiment for the RON.
(§1) Specifically, the compound was prepared to a concentration of 1 mM with 100% DMSO and was diluted 10 times in a stepwise manner through 3-fold dilution. 2 ul of the compound diluted in a stepwise manner was added to a 96-well-plate containing 48 ul of a 1× kinase reaction buffer (50 mM HEPES (pH 7.4), 0.05% BSA, 0.005% Tween-20, 1 mM DTT, 0.5 mM MnCl2, 20 mM MgCl2).
The cMET protein was diluted to a concentration of 263 nM with a cMET storage buffer (50 mM Tris-HCl (pH 7.5), 150 mM NaCl, 0.05% Brij35, 1 mM DTT, 10% Glycerol), and then diluted again to a concentration of 2 nM with a 1× kinase reaction buffer. As a substrate cocktail, a MET-specific substrate mixture (5 uM TK peptide, […]) at a concentration 2 times the final reaction concentration.
Thereafter, a 384-well-plate was prepared, and 2.5 μl of each of the diluted compounds of Examples was added to a corresponding well of experimental group wells, and 2.5 μl of a 4% DMSO solution was dispensed into high control wells and low control wells.
(§2) Thereafter, 2.5 μL of 2 nM cMET was dispensed into the high control wells and the experimental group wells, and 2.5 μL of a 1× kinase reaction buffer was added to the low control wells, and the […] and the reaction buffer were centrifuged at room temperature for 40 seconds at 1000 RPM, and then incubated at room temperature for 20 to 30 minutes. Then, 5 μL of a substrate cocktail (2×) was dispensed into all wells, centrifuged at room temperature for 40 seconds at 1000 RPM, and then incubated at room temperature for 60 minutes. Thereafter, 5 μL of 90 mM EDTA was added to all wells to terminate the reaction, and then incubated again at room temperature for 5 minutes. Thereafter, 5 μL of a 4× phosphotyrosine antibody (Perkin Elmer) containing europium was added to all wells, and then incubated at room temperature for 60 minutes. After the incubation, the 384-well-plate was read with a Vison plate reader. At this time, the excitation wavelength was 340 nm, and the emission wavelength was 620 nm and 665 nm. The IC50 value of the compound of each Example was derived using the GraphPd Prism7 program.

RON = RON (Homo sapiens, UniProt Q04912); test: Inhibitory activity against RON, TR-FRET kinase assay; assay type: biochemical; conditions: RON enzyme
Protocol: In order to measure the inhibitory activity of each of the compounds of Examples against RON, the IC50 of each of the compounds was measured using a Time-Resolved Fluorescence Energy Transfer Chemistry (TR-FRET).
as §1, with “7.4), 0.01%” for “7.4), 0.05% BSA, 0.005%”, “Tween-20, 5” for “Tween-20, 1”, “mM Na3VO4, 2 mM EGTA, 10” for “mM MnCl2, 20”
The RON protein was diluted to a concentration of 49.3 nM with an RON storage buffer (50 mM Tris-HCl (pH 7.5), 150 mM NaCl, 0.5 mM EDTA, 0.02% Triton X-100), and then diluted again to a concentration of 0.4 nM with a 1× kinase reaction buffer. As a substrate cocktail, a RON-specific substrate mixture (40 uM ULight-labeled Poly GT, 100 nM ATP) at a concentration 2 times the final reaction concentration.
Thereafter, a 384-well-plate was prepared, and 2.5 ul of each of the diluted compounds of Examples was added to a corresponding well of experimental group wells, and 2.5 ul of a 4% DMSO solution was dispensed into high control wells and low control wells.
as §2, with “of 0.4” for “of 2”, “nM RON” for “nM cMET”, “of 30” for “of 90”

Sequence of cMET (P08581 25-1390): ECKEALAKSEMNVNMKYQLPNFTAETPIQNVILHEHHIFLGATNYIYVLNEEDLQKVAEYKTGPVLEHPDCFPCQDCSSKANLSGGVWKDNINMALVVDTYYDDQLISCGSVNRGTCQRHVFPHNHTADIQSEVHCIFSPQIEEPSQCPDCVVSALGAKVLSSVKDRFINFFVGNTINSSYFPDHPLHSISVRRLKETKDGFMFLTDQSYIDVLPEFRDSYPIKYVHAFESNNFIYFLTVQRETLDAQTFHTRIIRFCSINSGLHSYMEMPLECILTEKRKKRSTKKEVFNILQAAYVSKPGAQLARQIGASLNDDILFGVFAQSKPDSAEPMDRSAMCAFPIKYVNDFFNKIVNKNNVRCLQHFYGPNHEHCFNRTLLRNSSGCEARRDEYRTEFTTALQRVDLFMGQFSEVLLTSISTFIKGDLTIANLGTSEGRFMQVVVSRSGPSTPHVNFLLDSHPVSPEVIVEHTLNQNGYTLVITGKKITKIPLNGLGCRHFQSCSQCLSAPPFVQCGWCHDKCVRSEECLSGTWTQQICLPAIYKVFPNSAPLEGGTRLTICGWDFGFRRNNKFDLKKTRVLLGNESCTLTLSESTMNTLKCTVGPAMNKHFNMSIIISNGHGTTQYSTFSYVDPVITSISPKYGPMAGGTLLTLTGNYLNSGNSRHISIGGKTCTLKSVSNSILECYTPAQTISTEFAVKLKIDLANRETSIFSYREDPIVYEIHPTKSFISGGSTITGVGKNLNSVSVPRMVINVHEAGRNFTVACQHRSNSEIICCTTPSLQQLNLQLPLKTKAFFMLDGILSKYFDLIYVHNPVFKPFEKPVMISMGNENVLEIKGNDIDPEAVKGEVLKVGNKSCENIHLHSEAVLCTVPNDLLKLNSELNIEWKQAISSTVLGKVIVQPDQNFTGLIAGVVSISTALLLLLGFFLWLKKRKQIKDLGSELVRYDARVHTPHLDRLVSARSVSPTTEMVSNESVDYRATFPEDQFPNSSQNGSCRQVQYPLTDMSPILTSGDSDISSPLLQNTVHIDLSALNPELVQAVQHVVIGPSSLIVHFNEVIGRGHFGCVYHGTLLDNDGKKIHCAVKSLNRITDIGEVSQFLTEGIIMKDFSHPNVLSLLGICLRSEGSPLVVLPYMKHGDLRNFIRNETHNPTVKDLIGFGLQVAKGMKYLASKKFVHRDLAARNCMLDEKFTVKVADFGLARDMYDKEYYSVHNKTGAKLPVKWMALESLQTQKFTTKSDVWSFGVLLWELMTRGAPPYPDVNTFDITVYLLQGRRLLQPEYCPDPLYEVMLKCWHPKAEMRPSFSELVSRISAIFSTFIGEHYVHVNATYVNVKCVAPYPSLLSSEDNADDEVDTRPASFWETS
Sequence of RON (Q04912 25-1400, species assumed): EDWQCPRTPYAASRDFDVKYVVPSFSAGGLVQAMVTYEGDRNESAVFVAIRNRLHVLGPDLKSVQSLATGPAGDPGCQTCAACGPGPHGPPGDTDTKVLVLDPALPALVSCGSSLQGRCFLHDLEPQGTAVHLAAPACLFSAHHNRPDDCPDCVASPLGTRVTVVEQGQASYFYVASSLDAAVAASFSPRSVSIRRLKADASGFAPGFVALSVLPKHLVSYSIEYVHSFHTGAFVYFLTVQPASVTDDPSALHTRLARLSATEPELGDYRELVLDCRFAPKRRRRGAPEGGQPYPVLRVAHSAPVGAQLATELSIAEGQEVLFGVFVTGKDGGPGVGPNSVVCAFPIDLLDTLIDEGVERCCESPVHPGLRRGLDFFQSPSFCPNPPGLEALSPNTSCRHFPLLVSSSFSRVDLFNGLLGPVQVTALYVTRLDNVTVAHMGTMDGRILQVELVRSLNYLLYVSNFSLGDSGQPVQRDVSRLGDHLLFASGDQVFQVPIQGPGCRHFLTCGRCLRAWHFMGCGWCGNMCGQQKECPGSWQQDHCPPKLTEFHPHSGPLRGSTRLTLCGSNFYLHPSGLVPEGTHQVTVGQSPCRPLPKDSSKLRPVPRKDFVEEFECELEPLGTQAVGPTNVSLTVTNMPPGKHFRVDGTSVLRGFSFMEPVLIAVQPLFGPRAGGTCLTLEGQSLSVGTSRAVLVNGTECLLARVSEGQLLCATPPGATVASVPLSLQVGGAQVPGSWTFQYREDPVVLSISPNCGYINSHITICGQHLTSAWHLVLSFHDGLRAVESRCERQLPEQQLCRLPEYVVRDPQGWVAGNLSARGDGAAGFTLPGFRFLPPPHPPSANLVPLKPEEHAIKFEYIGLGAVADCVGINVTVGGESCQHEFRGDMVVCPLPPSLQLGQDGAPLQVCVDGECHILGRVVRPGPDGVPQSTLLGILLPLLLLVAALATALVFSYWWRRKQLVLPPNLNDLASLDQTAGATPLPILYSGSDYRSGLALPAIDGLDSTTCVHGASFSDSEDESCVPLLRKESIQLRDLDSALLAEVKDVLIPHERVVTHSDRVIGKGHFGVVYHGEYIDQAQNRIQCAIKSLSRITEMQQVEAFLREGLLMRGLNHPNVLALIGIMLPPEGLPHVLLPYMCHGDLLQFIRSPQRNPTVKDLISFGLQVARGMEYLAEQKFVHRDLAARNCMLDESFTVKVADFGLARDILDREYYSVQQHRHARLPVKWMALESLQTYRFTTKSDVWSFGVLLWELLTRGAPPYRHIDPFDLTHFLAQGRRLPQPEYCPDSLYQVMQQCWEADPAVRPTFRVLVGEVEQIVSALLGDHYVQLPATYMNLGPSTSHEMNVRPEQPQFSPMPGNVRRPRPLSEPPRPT

Row | Compound | IC50 (cMET) [nM] | IC50 (RON) [nM]
1 | O=C(Nc1ccc(Oc2ccnc3[nH]c(=O)[nH]c23)c(F)c1)c1ncn(-c2ccccc2)c1C(F)(F)F [Example 1, N-(3-fluoro-4-((2-oxo-2,3-dihydro-1H-imidazo[4,5-b]pyridine-7-yl)oxy)phenyl)-1-phenyl-5-(trifluoromethyl)-1H-imidazole-4-carboxamide] | > 5000 | < 50
2 | O=C(Nc1ccc(Oc2ccnc3[nH]c(=O)[nH]c23)c(F)c1)c1cnn(-c2ccccc2)c1C(F)(F)F [Example 2, N-(3-fluoro-4-((2-oxo-2,3-dihydro-1H-imidazo[4,5-b]pyridine-7-yl)oxy)phenyl)-1-phenyl-5-(trifluoromethyl)-1H-pyrazole-4-carboxamide] | > 5000 | < 50
3 | CCn1c(=O)[nH]c2nccc(Oc3ccc(NC(=O)c4ncn(-c5ccccc5)c4C(F)(F)F)cc3F)c21 [Example 3, N-(4-((1-ethyl-2-oxo-2,3-dihydro-1H-imidazo[4,5-b]pyridine-7-yl)oxy)-3-fluorophenyl)-1-phenyl-5-(trifluoromethyl)-1H-imidazole-4-carboxamide] | > 5000 | < 50
4 | CCn1c(=O)[nH]c2nccc(Oc3ccc(NC(=O)c4cnn(-c5ccccc5)c4C(F)(F)F)cc3F)c21 [Example 4, N-(4-((1-ethyl-2-oxo-2,3-dihydro-1H-imidazo[4,5-b]pyridine-7-yl)oxy)-3-fluorophenyl)-1-phenyl-5-(trifluoromethyl)-1H-pyrazole-4-carboxamide] | > 5000 | < 50
5 | Cn1c(=O)[nH]c2nccc(Oc3ccc(NC(=O)c4ncn(-c5ccccc5)c4C(F)(F)F)cc3F)c21 [Example 5, N-(3-fluoro-4-((1-methyl-2-oxo-2,3-dihydro-1H-imidazo[4,5-b]pyridine-7-yl)oxy)phenyl)-1-phenyl-5-(trifluoromethyl)-1H-imidazole-4-carboxamide] | > 5000 | < 50
6 | Cn1c(=O)[nH]c2nccc(Oc3ccc(NC(=O)c4cnn(-c5ccccc5)c4C(F)(F)F)cc3F)c21 [Example 6, N-(3-fluoro-4-((1-methyl-2-oxo-2,3-dihydro-1H-imidazo[4,5-b]pyridine-7-yl)oxy)phenyl)-1-phenyl-5-(trifluoromethyl)-1H-pyrazole-4-carboxamide] | > 5000 | < 50
7 | CC(C)n1c(=O)[nH]c2nccc(Oc3ccc(NC(=O)c4cnn(-c5ccccc5)c4C(F)(F)F)cc3F)c21 [Example 7, N-(3-fluoro-4-((1-isopropyl-2-oxo-2,3-dihydro-1H-imidazo[4,5-b]pyridine-7-yl)oxy)phenyl)-1-phenyl-5-(trifluoromethyl)-1H-pyrazole-4-carboxamide] | 500 to 5000 | < 50
8 | CC(C)n1c(=O)[nH]c2nccc(Oc3ccc(NC(=O)c4ncn(-c5ccccc5)c4C(F)(F)F)cc3F)c21 [Example 8, N-(3-fluoro-4-((1-isopropyl-2-oxo-2,3-dihydro-1H-imidazo[4,5-b]pyridine-7-yl)oxy)phenyl)-1-phenyl-5-(trifluoromethyl)-1H-imidazole-4-carboxamide] | > 5000 | < 50
9 | CCc1c(C(=O)Nc2ccc(Oc3ccnc4[nH]c(=O)[nH]c34)c(F)c2)cnn1-c1ccccc1 [Example 9, 5-ethyl-N-(3-fluoro-4-((2-oxo-2,3-dihydro-1H-imidazo[4,5-b]pyridine-7-yl)oxy)phenyl)-1-phenyl-1H-pyrazole-4-carboxamide] | > 5000 | 50 to 500
10 | CCc1c(C(=O)Nc2ccc(Oc3ccnc4[nH]c(=O)n(C(C)C)c34)c(F)c2)cnn1-c1ccccc1 [Example 10, 5-ethyl-N-(3-fluoro-4-((1-isopropyl-2-oxo-2,3-dihydro-1H-imidazo[4,5-b]pyridine-7-yl)oxy)phenyl)-1-phenyl-1H-pyrazole-4-carboxamide] | 500 to 5000 | < 50
11 | O=C(Nc1ccc(Oc2ccnc3[nH]c(=O)n(C4CCOCC4)c23)c(F)c1)c1ncn(-c2ccccc2)c1C(F)(F)F [Example 11, N-(3-fluoro-4-((2-oxo-1-(tetrahydro-2H-pyran-4-yl)-2,3-dihydro-1H-imidazo[4,5-b]pyridine-7-yl)oxy)phenyl)-1-phenyl-5-(trifluoromethyl)-1H-imidazole-4-carboxamide] | > 5000 | < 50
12 | Cc1nn(-c2ccccc2)c(C)c1C(=O)Nc1ccc(Oc2ccnc3[nH]c(=O)[nH]c23)c(F)c1 [Example 12, N-(3-fluoro-4-((2-oxo-2,3-dihydro-1H-imidazo[4,5-b]pyridine-7-yl)oxy)phenyl)-3,5-dimethyl-1-phenyl-1H-pyrazole-4-carboxamide] | > 5000 | 50 to 500
13 | Cc1nn(-c2ccccc2)c(C)c1C(=O)Nc1ccc(Oc2ccnc3[nH]c(=O)n(C(C)C)c23)c(F)c1 [Example 13, N-(3-fluoro-4-((1-isopropyl-2-oxo-2,3-dihydro-1H-imidazo[4,5-b]pyridine-7-yl)oxy)phenyl)-3,5-dimethyl-1-phenyl-1H-pyrazole-4-carboxamide] | 50 to 500 | < 50
14 | Cc1c(C(=O)Nc2ccc(Oc3ccnc4[nH]c(=O)n(C(C)C)c34)c(F)c2)cnn1-c1ccccc1 [Example 14, N-(3-fluoro-4-((1-isopropyl-2-oxo-2,3-dihydro-1H-imidazo[4,5-b]pyridine-7-yl)oxy)phenyl)-5-methyl-1-phenyl-1H-pyrazole-4-carboxamide] | 500 to 5000 | < 50
15 | CC(C)n1c(=O)[nH]c2nccc(Oc3ccc(NC(=O)c4cnc(-c5ccccc5)s4)cc3F)c21 [Example 15, N-(3-fluoro-4-((1-isopropyl-2-oxo-2,3-dihydro-1H-imidazo[4,5-b]pyridine-7-yl)oxy)phenyl)-2-phenylthiazole-5-carboxamide] | > 5000 | 50 to 500
16 | CC(C)n1c(=O)[nH]c2nccc(Oc3ccc(NC(=O)c4ncc(-c5ccccc5)s4)cc3F)c21 [Example 16, N-(3-fluoro-4-((1-isopropyl-2-oxo-2,3-dihydro-1H-imidazo[4,5-b]pyridine-7-yl)oxy)phenyl)-5-phenylthiazole-2-carboxamide] | > 5000 | 50 to 500
17 | Cc1ccc(-n2ncc(C(=O)Nc3ccc(Oc4ccnc5[nH]c(=O)n(C(C)C)c45)c(F)c3)c2C(F)(F)F)cc1 [Example 17, N-(3-fluoro-4-((1-isopropyl-2-oxo-2,3-dihydro-1H-imidazo[4,5-b]pyridine-7-yl)oxy)phenyl)-1-(p-tolyl)-5-(trifluoromethyl)-1H-pyrazole-4-carboxamide] | > 5000 | 50 to 500
18 | COc1ccccc1-n1ncc(C(=O)Nc2ccc(Oc3ccnc4[nH]c(=O)n(C(C)C)c34)c(F)c2)c1C(F)(F)F [Example 18, N-(3-fluoro-4-((1-isopropyl-2-oxo-2,3-dihydro-1H-imidazo[4,5-b]pyridine-7-yl)oxy)phenyl)-1-(2-methoxyphenyl)-5-(trifluoromethyl)-1H-pyrazole-4-carboxamide] | 500 to 5000 | 50 to 500

Reference: patent publication US20240300944A1, “NOVEL UREA DERIVATIVE COMPOUND AS RON INHIBITOR” (LG CHEM, LTD., priority 2021, published 2024)
